Where a name gives a salt, the structure may show the parent alone.
Assays:
[1] = target: Bcl-2 protein (histag-Bcl-2, UniProtKB P10415) (Homo sapiens (Human), UniProt P10415); experiment: Inhibition of Bcl-2 by the fluorescence polarisation technique; format: binding; settings: for IC50: fluorescence polarisation test, method A, or method B where underlined (underlining not visible), read-out: IC50 (nM) Bcl-2 FP
Excerpt: Inhibition of Bcl-2 by the fluorescence polarisation technique

[2] = tested on: RS4;11 leukaemia tumour line; experiment: In vitro cytotoxicity, Microculture Tetrazolium Assay (MTT); format: cell-based; settings: Homo sapiens; RS4;11 cells, 48 hours exposure
Procedure: The cytotoxicity studies were carried out on the RS4;11 leukaemia tumour line.
The cells are distributed onto microplates and exposed to the test compounds for 48 hours. The cell viability is then quantified by a colorimetric assay, the Microculture Tetrazolium Assay (Cancer Res., 1987, 47, 939-942).

Bcl-2 protein, sequence (P10415 whole entry): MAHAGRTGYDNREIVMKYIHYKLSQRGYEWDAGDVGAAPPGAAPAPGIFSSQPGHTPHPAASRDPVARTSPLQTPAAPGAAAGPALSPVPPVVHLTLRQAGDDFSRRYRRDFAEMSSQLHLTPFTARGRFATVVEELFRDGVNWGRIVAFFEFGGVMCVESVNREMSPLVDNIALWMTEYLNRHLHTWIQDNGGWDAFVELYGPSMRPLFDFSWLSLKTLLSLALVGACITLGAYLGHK

Row | IC50 [1] [nM] | inhibition at 22.2 µM ([1]; @22.2 μM test compound, partial inhibitor, read-out: percentage fluorescence polarisation inhibition (Bcl-2 FP)) [%] | SMILES | IC50 [2] [nM]
1 | 4.2 | – | Cc1ccc(N(C(=O)c2cn(-c3cc(Cl)ccc3C(=O)N3Cc4ccccc4C[C@H]3CN3CCN(C)CC3)c3ccccc23)c2ccc(O)cc2)cc1 [Example 74, 1-(5-Chloro-2-{[(3S)-3-[(4-methylpiperazin-1-yl)methyl]-3,4-dihydroisoquinolin-2(1H)-yl]carbonyl}phenyl)-N-(4-hydroxyphenyl)-N-(4-methylphenyl)-1H-indole-3-carboxamide] | 162
2 | 23.5 | – | O=C(c1cn(-c2cc(Cl)ccc2C(=O)N2Cc3ccccc3C[C@H]2CN2CCOCC2)c2ccccc12)N(c1ccccc1)c1ccc(O)cc1 [Example 186, 1-{5-Chloro-2-[(3S)-3-(morpholin-4-ylmethyl)-1,2,3,4-tetrahydroisoquinoline-2-carbonyl}phenyl]-N-(4-hydroxyphenyl)-N-phenyl-1H-indole-3-carboxamide hydrochloride] | 626
3 | 4.3 | – | COc1ccc(C(=O)N2Cc3ccccc3C[C@H]2CN2CCN(C)CC2)c(-n2cc(C(=O)N(c3ccc(O)cc3)c3ccc4c(ccn4C)c3)c3ccccc32)c1 [Example 205, N-(4-Hydroxyphenyl)-1-{5-methoxy-2-[(3S)-3-[(4-methylpiperazin-1-yl)methyl]-1,2,3,4-tetrahydroisoquinoline-2-carbonyl]phenyl}-N-(1-methyl-1H-indol-5-yl)-1H-indole-3-carboxamide] | 123
4 | 5.9 | – | Cc1cc(C(=O)N(c2ccc(O)cc2)c2ccc3c(ccn3C)c2)cn1-c1cc2c(cc1C(=O)N1Cc3ccccc3C[C@H]1CN1CCOCC1)CCO2 [Example 118, N-(4-Hydroxyphenyl)-5-methyl-N-(1-methyl-1H-indol-5-yl)-1-(5-{[(3S)-3-(morpholin-4-ylmethyl)-3,4-dihydroisoquinolin-2(1H)-yl]carbonyl}-2,3-dihydro-1-benzofuran-6-yl)-1H-pyrrole-3-carboxamide] | 114
5 | 79.7 | – | Cc1ccc(N(C(=O)c2cn(-c3cc4c(cc3C(=O)N3Cc5ccccc5C[C@H]3CN3CCN(C)CC3)OCO4)c3ccccc23)c2ccc3[nH]ncc3c2)cc1 [Example 68, N-(1H-Indazol-5-yl)-N-(4-methylphenyl)-1-(6-{[(3S)-3-[(4-methylpiperazin-1-yl)methyl]-3,4-dihydroisoquinolin-2(1H)-yl]carbonyl}-1,3-benzodioxol-5-yl)-1H-indole-3-carboxamide hydrochloride] | 856
6 | 3.5 | – | CN1CCN(C[C@@H]2Cc3ccccc3CN2C(=O)c2cc3c(cc2-n2cc(C(=O)N(c4ccc(O)cc4)c4ccc(F)cc4)c4ccccc42)OCO3)CC1 [Example 35, N-(4-Fluorophenyl)-N-(4-hydroxyphenyl)-1-(6-{[(3S)-3-[(4-methylpiperazin-1-yl)methyl]-3,4-dihydroisoquinolin-2(1H)-yl]carbonyl}-1,3-benzodioxol-5-yl)-1H-indole-3-carboxamide] | 68.9
7 | 5.1 | – | Cc1cc(C(=O)N(c2ccc(O)cc2)c2ccc(Cl)cc2)cn1-c1cc(Cl)ccc1C(=O)N1Cc2ccccc2C[C@H]1CN1CCN(C)CC1 [Example 65, 1-(5-Chloro-2-{[(3S)-3-[(4-methylpiperazin-1-yl)methyl]-3,4-dihydroisoquinolin-2(1H)-yl]carbonyl}phenyl)-N-(4-chlorophenyl)-N-(4-hydroxyphenyl)-5-methyl-1H-pyrrole-3-carboxamide] | 130
8 | – | 72.1 | COc1cc(-n2nc(C(=O)N(c3ccccc3)c3ccccc3)c3ccccc32)c(C(=O)N2Cc3ccccc3C[C@H]2CN)cc1OCc1ccccc1 [Example 134, 1-{2-[(3S)-3-(Aminomethyl)-1,2,3,4-tetrahydroisoquinoline-2-carbonyl]-4-(benzyloxy)-5-methoxyphenyl}-N,N-diphenyl-1H-indazole-3-carboxamide] | 2100
9 | 13.1 | – | COc1ccc(N(C(=O)c2cn(-c3cc4c(cc3C(=O)N3Cc5ccccc5C[C@H]3CN3CCN(C)CC3)OCO4)c3ccccc23)c2ccc(O)cc2)cc1 [Example 49, N-(4-Hydroxyphenyl)-N-(4-methoxyphenyl)-1-(6-{[(3S)-3-[(4-methylpiperazin-1-yl)methyl]-3,4-dihydroisoquinolin-2(1H)-yl]carbonyl}-1,3-benzodioxol-5-yl)-1H-indole-3-carboxamide] | 136
10 | 218 | – | COc1cc(-n2nc(C(=O)N(c3ccccc3)c3ccccc3)c3ccccc32)c(C(=O)N2Cc3ccccc3C[C@H]2CN)cc1N [Example 152, 1-{4-Amino-2-[(3S)-3-(aminomethyl)-1,2,3,4-tetrahydroisoquinoline-2-carbonyl]-5-methoxyphenyl}-N,N-diphenyl-1H-indazole-3-carboxamide] | 2160
11 | 111 | – | CN1CCN(C[C@@H]2Cc3ccccc3CN2C(=O)c2cc3c(cc2-n2cc(C(=O)N(c4ccccc4)c4ccc(O)cc4)c4ccccc42)OC(F)(F)O3)CC1 [Example 182, 1-{2,2-Difluoro-6-[(3S)-3-[(4-methylpiperazin-1-yl)methyl]-1,2,3,4-tetrahydroisoquinoline-2-carbonyl]-2H-1,3-benzodioxol-5-yl}-N-(4-hydroxyphenyl)-N-phenyl-1H-indole-3-carboxamide] | 1850
12 | 13.6 | – | COc1cc(-n2cc(C(=O)N(c3ccccc3)c3ccc(F)cc3)c3ccccc32)c(C(=O)N2Cc3ccccc3C[C@H]2CN2CCN(C)CC2)cc1O [Example 190, N-(4-Fluorophenyl)-1-{4-hydroxy-5-methoxy-2-[(3S)-3-[(4-methylpiperazin-1-yl)methyl]-1,2,3,4-tetrahydroisoquinoline-2-carbonyl]phenyl}-N-phenyl-1H-indole-3-carboxamide dihydrochloride] | 645
13 | 16.8 | – | CN1CCN(C[C@@H]2Cc3ccccc3CN2C(=O)c2cc3c(cc2-n2cc(C(=O)N(c4ccccc4)c4ccc(O)cc4)c4ccccc42)OC[C@H](COCc2ccccc2)O3)CC1 [Example 188, 1-[(2S)-2-[(Benzyloxy)methyl]-7-[(3S)-3-[(4-methylpiperazin-1-yl)-methyl]-1,2,3,4-tetrahydroisoquinoline-2-carbonyl]-2,3-dihydro-1,4-benzodioxin-6-yl]-N-(4-hydroxyphenyl)-N-phenyl-1H-indole-3-carboxamide] | 68
14 | 3.1 | – | COc1cc(-n2cc(C(=O)N(c3ccc(O)cc3)c3ccc(F)cc3)c3ccccc32)c(C(=O)N2Cc3ccccc3C[C@H]2CN2CCN(C)CC2)cc1O [Example 201, N-(4-Fluorophenyl)-1-{4-hydroxy-5-methoxy-2-[(3S)-3-[(4-methylpiperazin-1-yl)methyl]-1,2,3,4-tetrahydroisoquinoline-2-carbonyl]phenyl}-N-(4-hydroxyphenyl)-1H-indole-3-carboxamide dihydrochloride] | 124
15 | 24.6 | – | Cc1cc(C(=O)N(c2ccccc2)c2ccc(O)cc2)cn1-c1cc(F)ccc1C(=O)N1Cc2ccccc2C[C@H]1CN1CCN(C)CC1 [Example 21, 1-(5-fluoro-2-{[(3S)-3-[(4-methylpiperazin-1-yl)methyl]-3,4-dihydroisoquinolin-2(1H)-yl]carbonyl}phenyl)-N-(4-hydroxyphenyl)-5-methyl-N-phenyl-1H-pyrrole-3-carboxamide] | 256
16 | 35 | – | NC[C@@H]1Cc2ccccc2CN1C(=O)c1cc(NC(=O)COc2ccccc2)ccc1-n1nc(C(=O)N(c2ccccc2)c2ccccc2)c2ccccc21 [Example 144, 1-{2-[(3S)-3-(Aminomethyl)-1,2,3,4-tetrahydroisoquinoline-2-carbonyl]-4-(2-phenoxyacetamido)phenyl}-N,N-diphenyl-1H-indazole-3-carboxamide] | 1380
17 | 13.6 | – | Cc1cc(C(=O)N(c2ccc(O)cc2)c2ccc3c(ccn3C)c2)cn1-c1cc2c(cc1C(=O)N1Cc3ccccc3C[C@H]1CN1CCCC1)OCO2 [Example 105, N-(4-Hydroxyphenyl)-5-methyl-N-(1-methyl-1H-indol-5-yl)-1-(6-{[(3S)-3-(pyrrolidin-1-ylmethyl)-3,4-dihydroisoquinolin-2(1H)-yl]carbonyl}-1,3-benzodioxol-5-yl)-1H-pyrrole-3-carboxamide hydrochloride] | 202
18 | 9.8 | – | CN1CCN(C[C@@H]2Cc3ccccc3CN2C(=O)c2cc3c(cc2-n2cc(C(=O)N(c4ccccc4)c4ccc(O)cc4)c4ccc(F)cc42)OCO3)CC1 [Example 197, 6-Fluoro-N-(4-hydroxyphenyl)-1-{6-[(3S)-3-[(4-methylpiperazin-1-yl)methyl]-1,2,3,4-tetrahydroisoquinoline-2-carbonyl]-2H-1,3-benzodioxol-5-yl}-N-phenyl-1H-indole-3-carboxamide] | 328
19 | 22.8 | – | CN1CCN(C[C@@H]2Cc3ccccc3CN2C(=O)c2cc(NC(=O)CSc3ccccc3)ccc2-n2cc(C(=O)N(c3ccccc3)c3ccc(O)cc3)c3ccccc32)CC1 [Example 163, N-(4-Hydroxyphenyl)-1-{2-[(3S)-3-[(4-methylpiperazin-1-yl)methyl]-1,2,3,4-tetrahydroisoquinoline-2-carbonyl]-4-[2-(phenylsulphanyl)acetamido]phenyl}-N-phenyl-1H-indole-3-carboxamide] | 292
20 | 28.3 | – | NC[C@@H]1Cc2ccccc2CN1C(=O)c1ccccc1-n1nc(C(=O)N(c2ccccc2)c2ccc(O)cc2)c2ccccc21 [Example 148, 1-{2-[(3S)-3-(Aminomethyl)-1,2,3,4-tetrahydroisoquinoline-2-carbonyl]-phenyl}-N-(4-hydroxyphenyl)-N-phenyl-1H-indazole-3-carboxamide] | 1170

From patent US9765056B2, “Indole and pyrrole compounds, a process for their preparation and pharmaceutical compositions containing them” (LES LABORATOIRES SERVIER, priority 2013, dated 2017)
